Data taken from ChEMBL document CHEMBL5726876, “NHE3-binding compounds and methods for inhibiting phosphate transport” (2019).
Where “and” joins values, the source holds several entries; their conditions need not be identical. Equal values may be shown once.

Assay: Cell-Based Assay of NHE3 Activity under Persistent Conditions: The ability of compounds to inhibit Rat NHE3-mediated Na+-dependent H+ antiport after application and washout was measured using a modification of the pH sensitive dye method described above. Opossum kidney (OK) cells were obtained from the ATCC and propagated per their instructions. The rat NHE3 gene was introduced into OK cells via electroporation, and cells were seeded into 96 well plates and grown overnight. Medium was aspirated from the wells, cells were washed twice with NaCl-HEPES buffer (100 mM NaCl, 50 mM HEPES, 10 mM glucose, 5 mM KCl, 2 mM CaCl2, 1 mM MgCl2, pH 7.4), then overlayed with NaCl-HEPES buffer containing 0-30 μM test compound.After a 60 min incubation, the test drug containing buffer was aspirated from the cells, cells were washed twice with NaCl-HEPES buffer without drug, then incubated for 30 min at room temperature with NH4Cl-HEPES buffer (20 mM NH4Cl, 80 mM NaCl, 50 mM HEPES, 5 mM KCl, 2 mM CaCl2, 1 mM MgCl2, pH 7.4) containing 5 uM BCECF-AM. Cells were washed twice with Ammonium free, Natfree HEPES (100 mM choline, 50 mM HEPES, 10 mM glucose, 5 mM KCl, 2 mM CaCl2, 1 mM MgCl2, pH 7.4) and incubated in the same buffer for 10 minutes at room temperature to lower intracellular pH. […] Initial rates were plotted as the average 2 or more replicates, and pIC50 values w

Row | Structure (SMILES) | IC50 [nM]
1 | CN1Cc2c(Cl)cc(Cl)cc2[C@@H](c2cccc(S(=O)(=O)NCCOCCOCCNC(=O)NCCCCNC(=O)NCCOCCOCCNS(=O)(=O)c3cccc([C@H]4CN(C)Cc5c(Cl)cc(Cl)cc54)c3)c2)C1 | 2510

Assay: Cell-based activity under Prompt Conditions: Cell-based activity under Prompt Conditions. Rat or human NHE3-mediated Na+-dependent H+ antiport was measured using a modification of the pH sensitive dye method originally reported by Paradiso (PNAS USA. 81:7436-7440, 1984). Opossum kidney (OK) cells were obtained from the ATCC and propagated per their instructions. The rat NHE3 gene (GenBank M85300) or the human NHE3 gene (GenBank NM_004174.1) was introduced into OK cells via electroporation, and cells were seeded into 96 well plates and grown overnight. Medium was aspirated from the wells, cells were washed twice with NaCl-HEPES buffer (100 mM NaCl, 50 mM HEPES, 10 mM glucose, 5 mM KCl, 2 mM CaCl2, 1 mM MgCl2, pH 7.4), then incubated for 30 min at room temperature with NH4Cl-HEPES buffer (20 mM NH4Cl, 80 mM NaCl, 50 mM HEPES, 5 mM KCl, 2 mM CaCl2, 1 mM MgCl2, pH 7.4) containing 5 μM bis(acetoxymethyl) 3,3′-(3′,6′-bis(acetoxymethoxy)-5-((acetoxymethoxy)carbonyl)-3-oxo-3H-spiro[isobenzofuran-1,9′-xanthene]-2′,7′-diyl)dipropanoate (BCECF-AM).Cells were washed twice with Ammonium free, Na+-free HEPES (100 mM choline, 50 mM HEPES, 10 mM glucose, 5 mM KCl, 2 mM CaCl2, 1 mM MgCl2, pH 7.4) and incubated in the same buffer for 10 minutes at room temperature to lower intracellular pH. […] Initial rates were plotted as the average 2 or more replicates, and pIC50 values were estimated using GraphPad Prism.

Row | Structure (SMILES) | IC50
2 | CN1Cc2c(Cl)cc(Cl)cc2[C@@H](c2cccc(S(=O)(=O)NCCOCCOCCNC(=O)NCCCCNC(=O)NCCOCCOCCNS(=O)(=O)c3cccc([C@H]4CN(C)Cc5c(Cl)cc(Cl)cc54)c3)c2)C1 | < 10000 nM and 50.1 nM
3 | CN1Cc2c(Cl)cc(Cl)cc2[C@H](c2cccc(S(=O)(=O)NCCOCCOCCN(C)C(=O)CCC(CCC(=O)N(C)CCOCCOCCNS(=O)(=O)c3cccc([C@@H]4CN(C)Cc5c(Cl)cc(Cl)cc54)c3)(CCC(=O)N(C)CCOCCOCCNS(=O)(=O)c3cccc([C@@H]4CN(C)Cc5c(Cl)cc(Cl)cc54)c3)NC(=O)COCC(=O)O)c2)C1 | 20 nM
4 | O=C(NCCCCNC(=O)NCCOCCOCCNS(=O)(=O)c1ccc(O[C@H]2c3cc(Cl)cc(F)c3C[C@@H]2N2CC[C@@H](O)C2)cc1)NCCOCCOCCNS(=O)(=O)c1ccc(O[C@H]2c3cc(Cl)cc(F)c3C[C@@H]2N2CC[C@@H](O)C2)cc1 | < 10000 nM
5 | CN1Cc2c(Cl)cc(Cl)cc2[C@H](c2cccc(S(=O)(=O)NCCOCCOCCNC(=O)CCC(CCC(=O)NCCOCCOCCNS(=O)(=O)c3cccc([C@@H]4CN(C)Cc5c(Cl)cc(Cl)cc54)c3)(CCC(=O)NCCOCCOCCNS(=O)(=O)c3cccc([C@@H]4CN(C)Cc5c(Cl)cc(Cl)cc54)c3)NC(=O)NCC(=O)O)c2)C1 | 29.5 nM
6 | CN1Cc2c(Cl)cc(Cl)cc2[C@H](c2cccc(S(=O)(=O)NCCOCCOCCNC(=O)CCC(CCC(=O)NCCOCCOCCNS(=O)(=O)c3cccc([C@@H]4CN(C)Cc5c(Cl)cc(Cl)cc54)c3)(CCC(=O)NCCOCCOCCNS(=O)(=O)c3cccc([C@@H]4CN(C)Cc5c(Cl)cc(Cl)cc54)c3)NC(=O)Cc3nnn[nH]3)c2)C1 | 200 nM
7 | CC(=O)C(CCC(=O)NCCOCCOCCNS(=O)(=O)c1cccc([C@@H]2CN(C)Cc3c(Cl)cc(Cl)cc32)c1)(CCC(=O)NCCOCCOCCNS(=O)(=O)c1cccc([C@@H]2CN(C)Cc3c(Cl)cc(Cl)cc32)c1)CCC(=O)NCCOCCOCCNS(=O)(=O)c1cccc([C@@H]2CN(C)Cc3c(Cl)cc(Cl)cc32)c1 | 316 nM
8 | CN(C)[C@H]1Cc2c(Cl)cc(Cl)cc2[C@@H]1Oc1ccc(S(=O)(=O)NCCOCCOCCNC(=O)CCC(C)(N)CCC(=O)NCCOCCOCCNS(=O)(=O)c2ccc(O[C@H]3c4cc(Cl)cc(Cl)c4C[C@@H]3N(C)C)cc2)cc1 | 2.51 nM
9 | CN1Cc2c(Cl)cc(Cl)cc2[C@H](c2cccc(S(=O)(=O)NCCOCCOCCNC(=O)CCC(CCC(=O)NCCOCCOCCNS(=O)(=O)c3cccc([C@@H]4CN(C)Cc5c(Cl)cc(Cl)cc54)c3)(CCC(=O)NCCOCCOCCNS(=O)(=O)c3cccc([C@@H]4CN(C)Cc5c(Cl)cc(Cl)cc54)c3)NC(=O)N[C@@H](CO)C(=O)O)c2)C1 | 12.6 nM
10 | CN1Cc2c(Cl)cc(Cl)cc2[C@H](c2cccc(S(=O)(=O)NCCOCCOCCNC(=O)CCC(CCC(=O)NCCOCCOCCNS(=O)(=O)c3cccc([C@@H]4CN(C)Cc5c(Cl)cc(Cl)cc54)c3)(CCC(=O)NCCOCCOCCNS(=O)(=O)c3cccc([C@@H]4CN(C)Cc5c(Cl)cc(Cl)cc54)c3)NC(=O)NCCS(=O)(=O)O)c2)C1 | 20 nM
11 | CN1Cc2c(Cl)cc(Cl)cc2[C@H](c2cccc(S(=O)(=O)NCCOCCOCCN(C)C(=O)CCC(N)(CCC(=O)N(C)CCOCCOCCNS(=O)(=O)c3cccc([C@@H]4CN(C)Cc5c(Cl)cc(Cl)cc54)c3)CCC(=O)N(C)CCOCCOCCNS(=O)(=O)c3cccc([C@@H]4CN(C)Cc5c(Cl)cc(Cl)cc54)c3)c2)C1 | 15.8 nM
12 | CN(C)[C@H]1Cc2c(F)cc(Cl)cc2[C@@H]1Oc1ccc(S(=O)(=O)NCCOCCOCCNC(=O)NCCCCNC(=O)NCCOCCOCCNS(=O)(=O)c2ccc(O[C@H]3c4cc(Cl)cc(F)c4C[C@@H]3N(C)C)cc2)cc1 | < 10000 nM
13 | CN1Cc2c(Cl)cc(Cl)cc2[C@H](c2cccc(S(=O)(=O)NCCOCCOCCNC(=O)CCC(CCC(=O)NCCOCCOCCNS(=O)(=O)c3cccc([C@@H]4CN(C)Cc5c(Cl)cc(Cl)cc54)c3)(CCC(=O)NCCOCCOCCNS(=O)(=O)c3cccc([C@@H]4CN(C)Cc5c(Cl)cc(Cl)cc54)c3)NC(=O)NC(CO)CO)c2)C1 | 79.4 nM
14 | CN(C)CC(=O)NC(CCC(=O)N(C)CCOCCOCCNS(=O)(=O)c1cccc([C@@H]2CN(C)Cc3c(Cl)cc(Cl)cc32)c1)(CCC(=O)N(C)CCOCCOCCNS(=O)(=O)c1cccc([C@@H]2CN(C)Cc3c(Cl)cc(Cl)cc32)c1)CCC(=O)N(C)CCOCCOCCNS(=O)(=O)c1cccc([C@@H]2CN(C)Cc3c(Cl)cc(Cl)cc32)c1 | 31.6 nM
15 | CN(C)[C@H]1Cc2c(Cl)cc(Cl)cc2[C@@H]1Oc1ccc(S(=O)(=O)NCCOCCOCCNC(=O)CCC(C)(CCC(=O)NCCOCCOCCNS(=O)(=O)c2ccc(O[C@H]3c4cc(Cl)cc(Cl)c4C[C@@H]3N(C)C)cc2)NC(=O)CCC(=O)O)cc1 | 10 nM
16 | CN1Cc2c(Cl)cc(Cl)cc2[C@H](c2cccc(S(=O)(=O)NCCOCCOCCNC(=O)NCCCC(CCCNC(=O)NCCOCCOCCNS(=O)(=O)c3cccc([C@@H]4CN(C)Cc5c(Cl)cc(Cl)cc54)c3)(CCCNC(=O)NCCOCCOCCNS(=O)(=O)c3cccc([C@@H]4CN(C)Cc5c(Cl)cc(Cl)cc54)c3)NC(=O)COCC(=O)O)c2)C1 | 0.631 nM
17 | CN1Cc2c(Cl)cc(Cl)cc2[C@H](c2cccc(S(=O)(=O)NCCOCCOCCNC(=O)CCC(CCC(=O)NCCOCCOCCNS(=O)(=O)c3cccc([C@@H]4CN(C)Cc5c(Cl)cc(Cl)cc54)c3)(CCC(=O)NCCOCCOCCNS(=O)(=O)c3cccc([C@@H]4CN(C)Cc5c(Cl)cc(Cl)cc54)c3)NC(=O)NC(CO)(CO)CO)c2)C1 | < 10000 nM
18 | C[C@@H](O)[C@H](NC(=O)NC(CCC(=O)NCCOCCOCCNS(=O)(=O)c1cccc([C@@H]2CN(C)Cc3c(Cl)cc(Cl)cc32)c1)(CCC(=O)NCCOCCOCCNS(=O)(=O)c1cccc([C@@H]2CN(C)Cc3c(Cl)cc(Cl)cc32)c1)CCC(=O)NCCOCCOCCNS(=O)(=O)c1cccc([C@@H]2CN(C)Cc3c(Cl)cc(Cl)cc32)c1)C(N)=O | 63.1 nM
19 | CN1Cc2c(Cl)cc(Cl)cc2[C@H](c2cccc(S(=O)(=O)NCCOCCOCCNC(=O)CCC(CCC(=O)NCCOCCOCCNS(=O)(=O)c3cccc([C@@H]4CN(C)Cc5c(Cl)cc(Cl)cc54)c3)(CCC(=O)NCCOCCOCCNS(=O)(=O)c3cccc([C@@H]4CN(C)Cc5c(Cl)cc(Cl)cc54)c3)NC(=O)Cn3ccnc3)c2)C1 | 158 nM
20 | CN1Cc2c(Cl)cc(Cl)cc2[C@H](c2cccc(S(=O)(=O)NCCOCCOCCNC(=O)NCCC(CCNC(=O)NCCOCCOCCNS(=O)(=O)c3cccc([C@@H]4CN(C)Cc5c(Cl)cc(Cl)cc54)c3)(CCNC(=O)NCCOCCOCCNS(=O)(=O)c3cccc([C@@H]4CN(C)Cc5c(Cl)cc(Cl)cc54)c3)NC(=O)COCC(=O)O)c2)C1 | 6.31 nM
21 | CN1Cc2c(Cl)cc(Cl)cc2[C@H](c2cccc(S(=O)(=O)NCCOCCOCCNC(=O)NCCCC(CCCNC(=O)NCCOCCOCCNS(=O)(=O)c3cccc([C@@H]4CN(C)Cc5c(Cl)cc(Cl)cc54)c3)(CCCNC(=O)NCCOCCOCCNS(=O)(=O)c3cccc([C@@H]4CN(C)Cc5c(Cl)cc(Cl)cc54)c3)NC(=O)CCC(=O)O)c2)C1 | 20 nM
22 | CC(O)C(CCC(=O)NCCOCCOCCNS(=O)(=O)c1cccc([C@@H]2CN(C)Cc3c(Cl)cc(Cl)cc32)c1)(CCC(=O)NCCOCCOCCNS(=O)(=O)c1cccc([C@@H]2CN(C)Cc3c(Cl)cc(Cl)cc32)c1)CCC(=O)NCCOCCOCCNS(=O)(=O)c1cccc([C@@H]2CN(C)Cc3c(Cl)cc(Cl)cc32)c1 (stereo partly drawn) | 25.1 nM
23 | CN1Cc2c(Cl)cc(Cl)cc2[C@H](c2cccc(S(=O)(=O)NCCOCCOCCNC(=O)Nc3ccc(NC(=O)NCCOCCOCCNS(=O)(=O)c4cccc([C@@H]5CN(C)Cc6c(Cl)cc(Cl)cc65)c4)cc3)c2)C1 | 2.51 nM
24 | CN1Cc2c(Cl)cc(Cl)cc2[C@H](c2cccc(S(=O)(=O)NCCOCCOCCNC(=O)NCCCC(CCCNC(=O)NCCOCCOCCNS(=O)(=O)c3cccc([C@@H]4CN(C)Cc5c(Cl)cc(Cl)cc54)c3)(CCCNC(=O)NCCOCCOCCNS(=O)(=O)c3cccc([C@@H]4CN(C)Cc5c(Cl)cc(Cl)cc54)c3)NC(=O)NC[C@H](O)[C@@H](O)[C@H](O)[C@H](O)CO)c2)C1 | 1580 nM
25 | CN1Cc2c(Cl)cc(Cl)cc2[C@H](c2cccc(S(=O)(=O)NCCOCCOCCNC(=O)CCC(CCCNC(=O)NCCOCCOCCNS(=O)(=O)c3cccc([C@@H]4CN(C)Cc5c(Cl)cc(Cl)cc54)c3)(CCC(=O)NCCOCCOCCNS(=O)(=O)c3cccc([C@@H]4CN(C)Cc5c(Cl)cc(Cl)cc54)c3)NC(=O)NCP(=O)(O)O)c2)C1 | 50.1 nM
26 | CN1CCN(C(=O)NC(CCC(=O)NCCOCCOCCNS(=O)(=O)c2cccc([C@@H]3CN(C)Cc4c(Cl)cc(Cl)cc43)c2)(CCC(=O)NCCOCCOCCNS(=O)(=O)c2cccc([C@@H]3CN(C)Cc4c(Cl)cc(Cl)cc43)c2)CCC(=O)NCCOCCOCCNS(=O)(=O)c2cccc([C@@H]3CN(C)Cc4c(Cl)cc(Cl)cc43)c2)CC1 | 126 nM
27 | CN1Cc2c(Cl)cc(Cl)cc2[C@H](c2cccc(NC(=O)[C@H](O)[C@@H](O)[C@H](O)[C@H](O)CO)c2)C1 | 25.1 nM
28 | CN1Cc2c(Cl)cc(Cl)cc2[C@H](c2cccc(S(=O)(=O)NCCOCCOCCNC(=O)NCCC(N)(CCNC(=O)NCCOCCOCCNS(=O)(=O)c3cccc([C@@H]4CN(C)Cc5c(Cl)cc(Cl)cc54)c3)CCNC(=O)NCCOCCOCCNS(=O)(=O)c3cccc([C@@H]4CN(C)Cc5c(Cl)cc(Cl)cc54)c3)c2)C1 | 44.7 nM
